From PubChem BioAssay AID330 (DTP/NCI, 2004)
Several values for one entry are separate records, joined by “and”; a condition that tells them apart may be missing. Identical values can stand only once. Inconclusive results and toxic doses are left out.

Tested on: P388 leukemia ip, CD2F1 mice, survival T/C
Assay: NCI In Vivo Anticancer Drug Screen. Data for tumor model P388 Leukemia (intraperitoneal) in CD2F1 (CDF1) mice
Settings: endpoint: median survival time, higher = longer survival
Procedure, shortened: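 Mice carrying the transplanted tumor received test compound or vehicle. Survival was recorded in each group, and the value is the treated-group measurement divided by that of the vehicle-treated control group.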

[1] = dose: 12.5 mg/kg/injection, schedule: Q01DX009 (ip), vehicle: saline with Tween-80
[2] = dose: 25.0 mg/kg/injection, schedule: Q01DX009 (ip), vehicle: saline with Tween-80
[3] = dose: 50.0 mg/kg/injection, schedule: Q01DX005 (ip), vehicle: saline
[4] = dose: 50.0 mg/kg/injection, schedule: Q01DX009 (ip), vehicle: saline with Tween-80
[5] = dose: 50.0 mg/kg/injection, schedule: Q01DX005 (ip), vehicle: saline with Tween-80
[6] = dose: 100.0 mg/kg/injection, schedule: Q01DX005 (ip), vehicle: saline with Tween-80
[7] = dose: 200.0 mg/kg/injection, schedule: Q01DX005 (ip), vehicle: saline with Tween-80
[8] = dose: 50.0 mg/kg/injection, schedule: Q01DX009 (ip), vehicle: Klucel (hydroxypropylcellulose) (HPC)
[9] = dose: 100.0 mg/kg/injection, schedule: Q01DX009 (ip), vehicle: Klucel (hydroxypropylcellulose) (HPC)
[10] = dose: 200.0 mg/kg/injection, schedule: Q01DX009 (ip), vehicle: Klucel (hydroxypropylcellulose) (HPC)
[11] = dose: 50.0 mg/kg/injection, schedule: Q01DX005 (ip), vehicle: Klucel (hydroxypropylcellulose) (HPC)
[12] = dose: 100.0 mg/kg/injection, schedule: Q01DX005 (ip), vehicle: Klucel (hydroxypropylcellulose) (HPC)
[13] = dose: 200.0 mg/kg/injection, schedule: Q01DX005 (ip), vehicle: Klucel (hydroxypropylcellulose) (HPC)
[14] = dose: 60.0 mg/kg/injection, schedule: Q01DX005 (ip), vehicle: saline with Tween-80
[15] = dose: 120.0 mg/kg/injection, schedule: Q01DX005 (ip), vehicle: saline with Tween-80
[16] = dose: 240.0 mg/kg/injection, schedule: Q01DX005 (ip), vehicle: saline with Tween-80

Structure (SMILES): CCOC(=O)C(=O)Nc1sc(C)c(C)c1C#N
- T/C (dose: 50.0 mg/kg/injection, schedule: Q01DX009 (ip), vehicle: saline + alcohol): 90 % of control
- T/C (dose: 100.0 mg/kg/injection, schedule: Q01DX009 (ip), vehicle: saline + alcohol): 98 % of control
- T/C (dose: 200.0 mg/kg/injection, schedule: Q01DX009 (ip), vehicle: saline + alcohol): 105 % of control

Structure (SMILES): OC(CC1CCCCN1)c1ccccc1 (stereo not given)
- T/C (dose: 12.5 mg/kg/injection, schedule: Q01DX005 (ip), vehicle: saline): 98 % of control
- T/C [1]: 107 % of control
- T/C (dose: 25.0 mg/kg/injection, schedule: Q01DX005 (ip), vehicle: saline): 105 % of control
- T/C [2]: 101 % of control
- T/C [3]: 115 % of control
- T/C [4]: 100 % of control and 102 % of control

Structure (SMILES): Cc1ccc(-c2cs/c(=N\N=C3/CSC(=O)N3Cc3ccccc3)n2-c2ccccc2)cc1
- T/C (dose: 100.0 mg/kg/injection, schedule: Q04DX002 (ip), vehicle: Klucel (hydroxypropylcellulose) (HPC)): 98 % of control
- T/C (dose: 200.0 mg/kg/injection, schedule: Q04DX002 (ip), vehicle: Klucel (hydroxypropylcellulose) (HPC)): 89 % of control

Structure (SMILES): C=CC12COC(=O)C(=C)C1C1OC(=O)C(=C)C1CC2O (stereo not given)
- T/C (dose: 0.75 mg/kg/injection, schedule: Q01DX009 (ip), vehicle: saline): 120 % of control
- T/C (dose: 1.5 mg/kg/injection, schedule: Q01DX009 (ip), vehicle: saline): 123 % of control
- T/C (dose: 3.0 mg/kg/injection, schedule: Q01DX009 (ip), vehicle: saline): 118 % of control
- T/C (dose: 6.0 mg/kg/injection, schedule: Q01DX009 (ip), vehicle: saline): 120 % of control

Structure (SMILES): CCC1CC(C(=O)O)CC(=O)N1 (stereo not given)
- T/C (dose: 17.5 mg/kg/injection, schedule: Q01DX005 (ip), vehicle: Klucel (hydroxypropylcellulose) (HPC)): 92 % of control
- T/C (dose: 35.0 mg/kg/injection, schedule: Q01DX005 (ip), vehicle: Klucel (hydroxypropylcellulose) (HPC)): 90 % of control
- T/C (dose: 70.0 mg/kg/injection, schedule: Q01DX005 (ip), vehicle: Klucel (hydroxypropylcellulose) (HPC)): 97 % of control

Structure (SMILES): COC(=O)NC1C(=O)CCC(=O)C1C(N)=O (stereo not given)
- T/C (dose: 7.5 mg/kg/injection, schedule: Q01DX005 (ip), vehicle: saline with Tween-80): 86 % of control
- T/C (dose: 15.0 mg/kg/injection, schedule: Q01DX005 (ip), vehicle: saline with Tween-80): 98 % of control

Structure (SMILES): Cc1cccc(C)c1NC=O
- T/C (dose: 50.0 mg/kg/injection, schedule: Q04DX003 (ip), vehicle: saline): 112 % of control
- T/C (dose: 100.0 mg/kg/injection, schedule: Q04DX003 (ip), vehicle: saline): 105 % of control
- T/C (dose: 200.0 mg/kg/injection, schedule: Q04DX003 (ip), vehicle: saline): 106 % of control
- T/C (dose: 400.0 mg/kg/injection, schedule: Q04DX003 (ip), vehicle: saline): 106 % of control

Structure (SMILES): CC(N)C(=O)NC(C(=O)O)C(C)O (stereo not given)
- T/C (dose: 25.0 mg/kg/injection, schedule: Q01DX009 (ip), vehicle: saline): 100 % of control
- T/C (dose: 50.0 mg/kg/injection, schedule: Q01DX009 (ip), vehicle: saline): 102 % of control
- T/C (dose: 100.0 mg/kg/injection, schedule: Q01DX009 (ip), vehicle: saline): 100 % of control
- T/C (dose: 200.0 mg/kg/injection, schedule: Q01DX009 (ip), vehicle: saline): 99 % of control
- T/C (dose: 400.0 mg/kg/injection, schedule: Q01DX009 (ip), vehicle: saline): 102 % of control

Structure (SMILES): N#C/C(=N\NC(=O)c1ccccc1Cl)c1ccccc1Cl
- T/C [5]: 97 % of control
- T/C [6]: 106 % of control

Structure (SMILES): O=C1c2ccccc2C2(c3ccc(O)cc3)c3ccccc3Oc3cccc1c32 (stereo not given)
- T/C [5]: 90 % of control
- T/C [6]: 92 % of control
- T/C [7]: 95 % of control

Structure (SMILES): CC(C)[C@](O)(C(=O)OCC1CCN2CC[C@@H](O)C12)[C@H](C)O (stereo not given in full)
- T/C (dose: 40.6 mg/kg/injection, schedule: Q01DX009 (ip), vehicle: saline): 96 % of control
- T/C (dose: 81.25 mg/kg/injection, schedule: Q01DX009 (ip), vehicle: saline): 102 % of control
- T/C (dose: 162.5 mg/kg/injection, schedule: Q01DX009 (ip), vehicle: saline): 92 % of control and 98 % of control

Structure (SMILES): Fc1c(F)c(-c2c(F)c(F)c(OCC3CO3)c(F)c2F)c(F)c(F)c1OCC1CO1 (stereo not given)
- T/C [8]: 98 % of control
- T/C [9]: 103 % of control
- T/C [10]: 102 % of control

Structure (SMILES): Cn1ccc2c3c4ccccc4ccc3c3c(ccn3C)c21
- T/C [11]: 197 % of control
- T/C [12]: 177 % of control
- T/C [13]: 239 % of control

Structure (SMILES): COC(=O)[C@@]12OC[C@]34C([C@@H](O)C1O)[C@@]1(C)CC(=O)C(OS(=O)(=O)C(F)(F)F)=C(C)C1C[C@H]3OC(=O)[C@H](OC(=O)/C=C(\C)C(C)C)[C@H]42 (stereo not given in full)
- T/C (dose: 0.25 mg/kg/injection, schedule: Q01DX005 (ip), vehicle: DMSO): 101 % of control
- T/C (dose: 0.5 mg/kg/injection, schedule: Q01DX005 (ip), vehicle: DMSO): 108 % of control
- T/C (dose: 1.0 mg/kg/injection, schedule: Q01DX005 (ip), vehicle: DMSO): 109 % of control and 97 % of control
- T/C (dose: 2.0 mg/kg/injection, schedule: Q01DX005 (ip), vehicle: DMSO): 107 % of control and 118 % of control
- T/C (dose: 4.0 mg/kg/injection, schedule: Q01DX005 (ip), vehicle: DMSO): 107 % of control
- T/C (dose: 8.0 mg/kg/injection, schedule: Q01DX005 (ip), vehicle: DMSO): 115 % of control

Structure (SMILES): CCCCCCCCCCC1OCN2CCCCC12 (stereo not given)
- T/C [3]: 108 % of control
- T/C (dose: 100.0 mg/kg/injection, schedule: Q01DX005 (ip), vehicle: saline): 104 % of control
- T/C (dose: 200.0 mg/kg/injection, schedule: Q01DX005 (ip), vehicle: saline): 118 % of control

Structure (SMILES): CC1(C)Oc2cc3oc(=O)ccc3c3c2C2C1CCC(C)(O3)C2O (stereo not given)
- T/C [11]: 102 % of control
- T/C [12]: 96 % of control
- T/C [13]: 105 % of control

Structure (SMILES): O=C(O)CCC(CCC(=O)O)(C(=O)O)C(=O)O
- T/C (dose: 60.0 mg/kg/injection, schedule: Q01DX005 (ip), vehicle: saline): 96 % of control
- T/C (dose: 120.0 mg/kg/injection, schedule: Q01DX005 (ip), vehicle: saline): 99 % of control

Structure (SMILES): COc1ccc(-c2cn(-c3ccc(I)cc3)c3ncnc(N)c23)cc1
- T/C [14]: 99 % of control
- T/C [15]: 105 % of control
- T/C [16]: 90 % of control

Structure (SMILES): CN(CCN1C(=O)c2cccc3cccc(c23)C1=O)CCN1C(=O)c2cccc3cccc(c23)C1=O
- T/C [5]: 95 % of control
- T/C [14]: 95 % of control
- T/C [6]: 87 % of control
- T/C [7]: 91 % of control
- T/C [16]: 88 % of control

Structure (SMILES): O=[N+]([O-])c1ccc2c(c1)Cc1cc(N(CCCl)CCCl)ccc1-2
- T/C [8]: 94 % of control
- T/C [9]: 92 % of control
- T/C [10]: 94 % of control

Structure (SMILES): O=C(N/N=C/c1cccc(O)c1O)N/N=C/c1cccc(O)c1O
- T/C (dose: 25.0 mg/kg/injection, schedule: Q01DX009 (ip), vehicle: distilled water + Tween-80): 104 % of control and 109 % of control
- T/C (dose: 50.0 mg/kg/injection, schedule: Q01DX009 (ip), vehicle: distilled water + Tween-80): 109 % of control (2×) and 116 % of control
- T/C (dose: 100.0 mg/kg/injection, schedule: Q01DX009 (ip), vehicle: distilled water + Tween-80): 118 % of control and 119 % of control
- T/C (dose: 200.0 mg/kg/injection, schedule: Q01DX009 (ip), vehicle: distilled water + Tween-80): 118 % of control and 95 % of control
- T/C (dose: 400.0 mg/kg/injection, schedule: Q01DX009 (ip), vehicle: distilled water + Tween-80): 91 % of control

Structure (SMILES): CC(C)=CCc1c2c(c(O)c3c(=O)c(-c4ccc(O)c(O)c4)coc13)C=CC(C)(C)O2
- T/C [2]: 99 % of control
- T/C [4]: 105 % of control
- T/C (dose: 100.0 mg/kg/injection, schedule: Q01DX009 (ip), vehicle: saline with Tween-80): 99 % of control
- T/C (dose: 200.0 mg/kg/injection, schedule: Q01DX009 (ip), vehicle: saline with Tween-80): 106 % of control

Structure (SMILES): NC(=O)NC1CCCC1
- T/C (dose: 100.0 mg/kg/injection, schedule: Q04DX003 (ip), vehicle: saline with Tween-80): 100 % of control
- T/C (dose: 200.0 mg/kg/injection, schedule: Q04DX003 (ip), vehicle: saline with Tween-80): 100 % of control
- T/C (dose: 400.0 mg/kg/injection, schedule: Q04DX003 (ip), vehicle: saline with Tween-80): 100 % of control

Structure (SMILES): Cn1c(=O)c2c(c3ccccc31)Oc1oc3ccc4ccccc4c3c(=O)c1C2
- T/C [1]: 92 % of control
- T/C [2]: 90 % of control

Structure (SMILES): O=P1(NC23CC4CC(CC(C4)C2)C3)OC(CCl)=NC1c1ccc(C2N=C(CCl)OP2(=O)NC23CC4CC(CC(C4)C2)C3)cc1 (stereo not given)
- T/C [14]: 98 % of control
- T/C [15]: 98 % of control
- T/C [16]: 98 % of control
